Assay results reported in patent US20250163104A1, “MACROCYCLIC IMMUNOMODULATORS” (priority 2021, published 2025).
Where a SMILES comes first, the peptide text is derived from it. Bridges are numbered along the chain shown (N, C = ends). [ ]: non-standard residue; d: D form. The star is where a group is joined. Phe(3-CF3) = N[C@@H](Cc1cccc(C(F)(F)F)c1)C(=O)O; Bip = N[C@@H](Cc1ccc(-c2ccccc2)cc1)C(=O)O; Phe(3-OMe) = COc1cccc(C[C@H](N)C(=O)O)c1; 4Pal = N[C@@H](Cc1ccncc1)C(=O)O; Cha = N[C@@H](CC1CCCCC1)C(=O)O; Carboxymethyl = O=C(O)C*; Orn = NCCC[C@H](N)C(=O)O; Dab = NCC[C@H](N)C(=O)O; Dap = NC[C@H](N)C(=O)O

Each molecule was assayed against T1, human PD-1 / PD-L1-Ig binding on Jurkat cell line over-expressing human PD-1 (Jurkat-PD-1) (Homo sapiens, UniProt Q15116) (assay: Jurkat-PD-1 Cell Binding High-Content Screening Assay (CBA)). Settings: Jurkat-PD-1 cells, PE-labeled PD-L1-Ig 20 nM final; read-out: Jurkat HPD1_PDL1 IC50.
T1 construct: expressed in transfected cells; host or cells: Jurkat
T1 sequence (Q15116 25-288): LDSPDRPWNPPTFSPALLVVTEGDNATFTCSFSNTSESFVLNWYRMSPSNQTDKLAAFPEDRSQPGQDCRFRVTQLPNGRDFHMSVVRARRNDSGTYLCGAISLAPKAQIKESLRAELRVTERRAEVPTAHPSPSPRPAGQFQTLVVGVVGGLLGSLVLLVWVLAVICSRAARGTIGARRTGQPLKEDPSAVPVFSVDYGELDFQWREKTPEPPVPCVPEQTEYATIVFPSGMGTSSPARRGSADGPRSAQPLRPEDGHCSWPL
Type: cell-based
How it was run: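 Jurkat-hPD-1 cells in DMEM with 10% fetal calf serum receive test compound and are held at 37° C for 2 h. PE-labeled PD-L1-Ig is added at 20 nM final and left for 1 hour. Cells are then fixed and Hoechst-stained, and binding is measured by imaging.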

SMILES	IC50 [nM]
CC(C)C[C@H]1NC(=O)[C@H](CCCN)NC(=O)[C@H](CCC(=O)O)NC(=O)[C@H](Cc2ccc(-c3ccccc3)cc2)NC(=O)[C@H](C(C)C)NC(=O)[C@H](Cc2cccc(C(F)(F)F)c2)NC(=O)[C@H](CC(=O)O)NC(=O)[C@H](Cc2ccncc2)NC(=O)[C@H](CN)NC(=O)CSC[C@@H](C(=O)N[C@@H](C)C(N)=O)NC(=O)[C@H]([C@@H](C)O)NC(=O)[C@H](C(C)C)NC(=O)[C@H](CC2CCCCC2)NC(=O)[C@H](CCN)NC1=O [Compound 1459] ({CH2CO}-[Dap][4Pal]D[Phe(3-CF3)]V[Bip]E[Orn][dL][Dab][Cha]VTCA-NH2; thioether N-14)	17.7
CC(C)C[C@H]1NC(=O)[C@H](CCCN)NC(=O)[C@H](CCC(=O)O)NC(=O)[C@H](Cc2ccc(-c3ccccc3)cc2)NC(=O)[C@H](C(C)C)NC(=O)[C@H](Cc2cccc(C(F)(F)F)c2)NC(=O)[C@H](CC(=O)O)NC(=O)[C@H](Cc2ccc(OCC(=O)O)cc2)NC(=O)[C@H](Cc2ccncc2)NC(=O)CSC[C@@H](C(=O)N[C@@H](C)C(N)=O)NC(=O)[C@H]([C@@H](C)O)NC(=O)[C@H](C(C)C)NC(=O)[C@H](CC2CCCCC2)NC(=O)[C@H](CCN)NC1=O [Compound 1460]	11.2
CC(C)C[C@H]1NC(=O)[C@H](CCCN)NC(=O)[C@H](CCC(=O)O)NC(=O)[C@H](Cc2ccc(-c3ccccc3)cc2)NC(=O)[C@H](C(C)C)NC(=O)[C@H](Cc2cccc(C(F)(F)F)c2)NC(=O)[C@H](CC(=O)O)NC(=O)[C@H](Cc2ccc(C(=O)O)cc2)NC(=O)[C@H](Cc2ccc(OCC(=O)O)cc2)NC(=O)CSC[C@@H](C(=O)N[C@@H](C)C(N)=O)NC(=O)[C@H]([C@@H](C)O)NC(=O)[C@H](C(C)C)NC(=O)[C@H](CC2CCCCC2)NC(=O)[C@H](CCN)NC1=O [Compound 1461]	13.6
CC(C)C[C@H]1NC(=O)[C@H](CCCN)NC(=O)[C@H](CCC(=O)O)NC(=O)[C@H](Cc2ccc(-c3ccccc3)cc2)NC(=O)[C@H](C(C)C)NC(=O)[C@H](Cc2cccc(C(F)(F)F)c2)NC(=O)[C@H](CC(=O)O)NC(=O)[C@H](Cc2ccncc2)NC(=O)[C@H](Cc2ccc(OCC(=O)O)cc2)NC(=O)CSC[C@@H](C(=O)N[C@@H](C)C(N)=O)NC(=O)[C@H]([C@@H](C)O)NC(=O)[C@H](C(C)C)NC(=O)[C@H](CC2CCCCC2)NC(=O)[C@H](CCN)NC1=O [Compound 1462] ({CH2CO}-Y(Carboxymethyl)[4Pal]D[Phe(3-CF3)]V[Bip]E[Orn][dL][Dab][Cha]VTCA-NH2; thioether N-14)	16.8
CC(C)C[C@H]1NC(=O)[C@H](CCCN)NC(=O)[C@H](CCC(=O)O)NC(=O)[C@H](Cc2ccc(-c3ccccc3)cc2)NC(=O)[C@H](C(C)C)NC(=O)[C@H](Cc2cccc(C(F)(F)F)c2)NC(=O)[C@H](CC(=O)O)NC(=O)[C@H](Cc2ccncc2)NC(=O)[C@H](Cc2ccccc2)NC(=O)CSC[C@@H](C(=O)N[C@@H](C)C(N)=O)NC(=O)[C@H]([C@@H](C)O)NC(=O)[C@H](C(C)C)NC(=O)[C@H](CC2CCCCC2)NC(=O)[C@H](CCN)NC1=O [Compound 1463] ({CH2CO}-F[4Pal]D[Phe(3-CF3)]V[Bip]E[Orn][dL][Dab][Cha]VTCA-NH2; thioether N-14)	24.4
CC(C)C[C@H]1NC(=O)[C@H](CCCN)NC(=O)[C@H](CCC(=O)O)NC(=O)[C@H](Cc2ccc(-c3ccccc3)cc2)NC(=O)[C@H](C(C)C)NC(=O)[C@H](Cc2cccc(C(F)(F)F)c2)NC(=O)[C@H](CC(=O)O)NC(=O)[C@H](Cc2ccc(O)cc2)NC(=O)[C@H](Cc2ccncc2)NC(=O)CSC[C@@H](C(=O)N[C@@H](C)C(N)=O)NC(=O)[C@H]([C@@H](C)O)NC(=O)[C@H](C(C)C)NC(=O)[C@H](CC2CCCCC2)NC(=O)[C@H](CCN)NC1=O [Compound 1464]	25.8
CC(C)C[C@H]1NC(=O)[C@H](CCCN)NC(=O)[C@H](CCC(=O)O)NC(=O)[C@H](Cc2ccc(-c3ccccc3)cc2)NC(=O)[C@H](C(C)C)NC(=O)[C@H](Cc2cccc(C(F)(F)F)c2)NC(=O)[C@H](CC(=O)O)NC(=O)[C@H](Cc2ccc(OCC(=O)O)cc2)NC(=O)[C@H](Cc2ccc(OCC(=O)O)cc2)NC(=O)CSC[C@@H](C(=O)N[C@@H](C)C(N)=O)NC(=O)[C@H]([C@@H](C)O)NC(=O)[C@H](C(C)C)NC(=O)[C@H](CC2CCCCC2)NC(=O)[C@H](CCN)NC1=O [Compound 1465]	27.4
COc1cccc(C[C@@H]2NC(=O)[C@H](CC(=O)O)NC(=O)[C@H](Cc3ccc(O)cc3)NC(=O)[C@H](CC(N)=O)NC(=O)CSC[C@@H](C(=O)N[C@@H](C)C(N)=O)NC(=O)[C@H]([C@@H](C)O)NC(=O)[C@H](C(C)C)NC(=O)[C@H](CC3CCCCC3)NC(=O)[C@H](CCN)NC(=O)[C@@H](CC(C)C)NC(=O)[C@H](CCCN)NC(=O)[C@H](CCC(=O)O)NC(=O)[C@H](Cc3ccc(-c4ccccc4)cc3)NC(=O)[C@H](C(C)C)NC2=O)c1 [Compound 1466] ({CH2CO}-NYD[Phe(3-OMe)]V[Bip]E[Orn][dL][Dab][Cha]VTCA-NH2; thioether N-14)	16.3
COc1cccc(C[C@@H]2NC(=O)[C@H](CC(=O)O)NC(=O)[C@H](Cc3ccc(OCC(=O)O)cc3)NC(=O)[C@H](CN)NC(=O)CSC[C@@H](C(=O)N[C@@H](C)C(N)=O)NC(=O)[C@H]([C@@H](C)O)NC(=O)[C@H](C(C)C)NC(=O)[C@H](CC3CCCCC3)NC(=O)[C@H](CCN)NC(=O)[C@@H](CC(C)C)NC(=O)[C@H](CCCN)NC(=O)[C@H](CCC(=O)O)NC(=O)[C@H](Cc3ccc(-c4ccccc4)cc3)NC(=O)[C@H](C(C)C)NC2=O)c1 [Compound 1467]	112
CC(C)C[C@H]1NC(=O)[C@H](CCCN)NC(=O)[C@H](CCC(=O)O)NC(=O)[C@H](Cc2ccc(-c3ccccc3)cc2)NC(=O)[C@H](C(C)C)NC(=O)[C@H](Cc2c[nH]c3ccccc23)NC(=O)[C@H](CC(=O)O)NC(=O)[C@H](Cc2ccc(OCC(=O)O)cc2)NC(=O)[C@H](CN)NC(=O)CSC[C@@H](C(=O)N[C@@H](C)C(N)=O)NC(=O)[C@H]([C@@H](C)O)NC(=O)[C@H](C(C)C)NC(=O)[C@H](Cc2cccc(C(F)(F)F)c2)NC(=O)[C@H](CCN)NC1=O [Compound 1468] ({CH2CO}-[Dap]Y(Carboxymethyl)DWV[Bip]E[Orn][dL][Dab][Phe(3-CF3)]VTCA-NH2; thioether N-14)	73.5
COc1cccc(C[C@@H]2NC(=O)[C@H](CCN)NC(=O)[C@@H](CC(C)C)NC(=O)[C@H](CCCN)NC(=O)[C@H](CCC(=O)O)NC(=O)[C@H](Cc3ccc(-c4ccccc4)cc3)NC(=O)[C@H](C(C)C)NC(=O)[C@H](Cc3c[nH]c4ccccc34)NC(=O)[C@H](CC(=O)O)NC(=O)[C@H](Cc3ccc(OCC(=O)O)cc3)NC(=O)[C@H](CN)NC(=O)CSC[C@@H](C(=O)N[C@@H](C)C(N)=O)NC(=O)[C@H]([C@@H](C)O)NC(=O)[C@H](C(C)C)NC2=O)c1 [Compound 1469] ({CH2CO}-[Dap]Y(Carboxymethyl)DWV[Bip]E[Orn][dL][Dab][Phe(3-OMe)]VTCA-NH2; thioether N-14)	29.6
